Laboratory results taken from patent US20220260557A1, “METHODS FOR DEPLETION AND ENRICHMENT” (priority 2018, published 2022).
Several values for one entry are separate records, joined by “and”; a condition that tells them apart may be missing. Equal values may be shown once.

Assays:
[1] = Serum biotin levels after 20 mg biotin ingestion, free biotin ELISA; conditions: per volunteer
Method: Baseline serum samples were obtained from 5 apparently healthy adult volunteers (4 male, 1 female) by antecubital venous blood draw in BD brand Vacutainer™ 10 mL red top tubes. […] Blood was allowed to clot for 1 hour at RT and centrifuged at 2,000 rpm for 15 min in a Beckman Allegra 6R tabletop centrifuge. For each time point, serum samples from each volunteer was pooled, mixed for 15 min at RT, aliquoted into 1.2 mL aliquots in 2 mL cryo-vials, and frozen at −80° C.
Samples above the kit's measuring range were diluted with the kit's sample dilution buffer.

clinical = conditions: human, in vivo, serum biotin level, LC-MS/MS

O=C(O)CCCC[C@@H]1SC[C@@H]2NC(=O)N[C@@H]21 [Biotin]
Biotin Concentration 1-hr ([1]; 1 hr after 20 mg biotin ingestion): 440 ng/mL | Biotin Concentration 3-hr ([1]; 3 hr after 20 mg biotin ingestion): 221 ng/mL and 289 ng/mL and 184 ng/mL and 113 ng/mL and 183 ng/mL | Biotin Concentration 6-hr ([1]; 6 hr after 20 mg biotin ingestion): 60 ng/mL and 65 ng/mL and 76 ng/mL | Biotin Concentration 8-hr ([1]; 8 hr after 20 mg biotin ingestion): 48 ng/mL and 64 ng/mL and 65 ng/mL | Biotin Concentration 24-hr ([1]; 24 hr after 20 mg biotin ingestion): 29 ng/mL and 26 ng/mL and 32 ng/mL and 24 ng/mL | Biotin Concentration 0-hr ([1]; baseline before 20 mg biotin ingestion): 1.1 ng/mL and 0.1 ng/mL and 0.3 ng/mL and 0.4 ng/mL (2×) | concentration at 1 h ([1]; both, human, in vivo, 20 mg, Biotin Concentration 1-hr, 1 hr after 20 mg biotin ingestion): 531 ng/mL | concentration at 6 h ([1]; both, human, in vivo, 20 mg, Biotin Concentration 6-hr, 6 hr after 20 mg biotin ingestion): 107 ng/mL | concentration at 8 h ([1]; both, human, in vivo, 20 mg, Biotin Concentration 8-hr, 8 hr after 20 mg biotin ingestion): 60 to 107 ng/mL | concentration at 24 h ([1]; both, human, in vivo, 20 mg, Biotin Concentration 24-hr, 24 hr after 20 mg biotin ingestion): 24 to 32 ng/mL | concentration at 6 h (clinical; 20 mg, all 5 volunteers): 17 to 35 ng/mL | concentration at 8 h (clinical; 20 mg, 8 hours, 4 out of 5 volunteers >15 ng/mL): 16 to 28 ng/mL | concentration at 6 h (clinical; 200 mg, 200 mg dose (so in the source)): 95 to 347 ng/mL
